This note sets out measurements from ChEMBL document CHEMBL2429721, “Novel 2,6-bis(4-methoxyphenyl)-1-methylpiperidin-4-one oxime esters: synthesis and a new insight into their antioxidant and antimicrobial potential” (Med Chem Res, 2013).

Holding throughout (format): functional
Test [1] deals with Candida albicans. Briefly: Antifungal activity against Candida albicans MTCC 3017 assessed as growth inhibition at 500 ug/mL after 72 hrs by agar well plate method. The conditions noted are these: MTCC 3017, 72 h, read-out: DIZ.
In test [2] the test system is Candida albicans. Kind of test: Antifungal activity against Candida albicans MTCC 3017 assessed as growth inhibition at 1000 ug/mL after 72 hrs by agar well plate method. The conditions noted are these: MTCC 3017, 72 h, read-out: DIZ.
A short description of test [3]: Antifungal activity against Chrysosporium keratinophilum MTCC 2827 assessed as growth inhibition at 500 ug/mL after 72 hrs by agar well plate method.
Test [4] deals with Pseudomonas aeruginosa. Kind of test: Antibacterial activity against Pseudomonas aeruginosa ATCC 27853 assessed as growth inhibition at 500 ug/mL after 24 hrs by agar well plate method. The conditions noted are these: ATCC 27853, 24 h, read-out: DIZ.
The test system of test [5] is Pseudomonas aeruginosa. Kind of test: Antibacterial activity against Pseudomonas aeruginosa ATCC 27853 assessed as growth inhibition at 1000 ug/mL after 24 hrs by agar well plate method. The conditions noted are these: ATCC 27853, 24 h, read-out: DIZ.
Test [6] has as its system Staphylococcus aureus. Kind of test: Antibacterial activity against Staphylococcus aureus ATCC 25923 assessed as growth inhibition at 500 ug/mL after 24 hrs by agar well plate method. The conditions noted are these: ATCC 25923, 24 h, read-out: DIZ.
For test [7], the system named is Staphylococcus aureus. Kind of test: Antibacterial activity against Staphylococcus aureus ATCC 25923 assessed as growth inhibition at 1000 ug/mL after 24 hrs by agar well plate method. The conditions noted are these: ATCC 25923, 24 h, read-out: DIZ.
The test system of test [8] is Escherichia coli. Kind of test: Antibacterial activity against Escherichia coli ATCC 25922 assessed as growth inhibition at 500 ug/mL after 24 hrs by agar well plate method. The conditions noted are these: ATCC 25922, 24 h, read-out: DIZ.
In test [9] the test system is Escherichia coli. Briefly: Antibacterial activity against Escherichia coli ATCC 25922 assessed as growth inhibition at 1000 ug/mL after 24 hrs by agar well plate method. The conditions noted are these: ATCC 25922, 24 h, read-out: DIZ.
Test [10] can be described thus: Antioxidant activity assessed as cupric ion reducing activity at 10 uM after 30 mins by CUPRAC assay.
Test [11] can be described thus: Antioxidant activity assessed as ferric ion reducing activity at 10 uM after 20 mins by FRAP assay.
Test [12] can be described thus: Antioxidant activity assessed as ABTS free radical scavenging activity after 30 mins.
Test [13] concerns Radical scavenging activity. Briefly: Antioxidant activity assessed as DPPH free radical scavenging activity after 20 mins by UV-visible spectrophotometric analysis.
Test [14] has as its system Aspergillus flavus. Kind of test: Antifungal activity against Aspergillus flavus MTCC 3306 assessed as growth inhibition at 1000 ug/mL after 72 hrs by agar well plate method. The conditions noted are these: MTCC 3306, 72 h, read-out: DIZ.
In test [15] the test system is Aspergillus flavus. Kind of test: Antifungal activity against Aspergillus flavus MTCC 3306 assessed as growth inhibition at 500 ug/mL after 72 hrs by agar well plate method. The conditions noted are these: MTCC 3306, 72 h, read-out: DIZ.
Test [16] in a line: Antifungal activity against Chrysosporium keratinophilum MTCC 2827 assessed as growth inhibition at 1000 ug/mL after 72 hrs by agar well plate method.

With `COc1ccc(C2CC(=NOC(=O)c3cc(OC)c(OC)c(OC)c3)CC(c3ccc(OC)cc3)N2C)cc1` (stereo unspecified), the zone of inhibition at 500 µg/mL in [1], in test [4], in test [6], in test [8] and in test [15] was 3 mm each time. Also, the zone of inhibition at 1000 µg/mL in [2] is 3 mm; in [5] it was 5 mm; in [7] it was 5 mm; in test [9], 4 mm; in test [14], 2 mm. The figures for the inhibition zone (IZ) in [3] and in [16] were 2 mm and 5 mm, respectively. Besides, the Activity in test [10] is 0.232; in test [11], 0.286. Moreover, the IC50 in [12] was 93 µM; in test [13], 71 µM.

In the case of `CN[C@@H]1[C@H](O[C@H]2[C@H](O[C@H]3[C@H](O)[C@@H](O)[C@H](N=C(N)N)[C@@H](O)[C@@H]3N=C(N)N)O[C@@H](C)[C@]2(O)C=O)O[C@@H](CO)[C@H](O)[C@H]1O` [STREPTOMYCIN], the values for the zone of inhibition at 500 µg/mL in test [4], in [6] and in [8] were 13 mm, 10 mm and 10 mm, respectively. Besides, the zone of inhibition at 1000 µg/mL in [5] was determined as 16 mm; in [7], 15 mm; in test [9], 16 mm.

As to `COc1ccc(C2CC(=NOC(=O)c3ccc(OC)cc3OC)CC(c3ccc(OC)cc3)N2C)cc1` (stereo unspecified), the zone of inhibition at 500 µg/mL amounted to 4 mm in [1]; 6 mm in test [4]; 2 mm in test [6]; 3 mm in test [8]; 3 mm in test [15]. For the same compound, the zone of inhibition at 1000 µg/mL in [2] turned out to be 6 mm; in [5], 6 mm; in [7], 4 mm; in test [9] it was 5 mm; in [14] it was 4 mm. Moreover, the inhibition zone (IZ) in test [3] worked out at 3 mm; in test [16], 4 mm. Also, the Activity in [10] came out at 0.236; in [11] it was 0.296. Further, the IC50 in test [12] stood at 80 µM; in test [13], 56 µM.

As to `COc1ccc(C2CC(=NOC(=O)c3ccccc3)CC(c3ccc(OC)cc3)N2C)cc1` (stereo unspecified), the zone of inhibition at 500 µg/mL in test [1] was 2 mm; in test [4], 1 mm; in [6], 2 mm; in test [8], 1 mm; in test [15], 1 mm. Further, the zone of inhibition at 1000 µg/mL in test [2] came to 3 mm; in test [5], 2 mm; in test [7], 3 mm; in test [9], 2 mm; in test [14], 1 mm. Besides, the inhibition zone (IZ) in [3] is 1 mm; in [16], 2 mm. Also, the Activity in [10] was 0.111; in test [11], 0.132. For the same compound, the values for the IC50 in test [12] and in test [13] were 375 µM and 152 µM, respectively.

On to `COc1ccc(C2CC(=NOC(=O)c3ccc(Br)cc3)CC(c3ccc(OC)cc3)N2C)cc1` (stereo unspecified), for which the zone of inhibition at 500 µg/mL in test [1] stood at 8 mm; in test [4] it was 7 mm; in test [6] it was 6 mm; in test [8], 6 mm; in test [15] it was 4 mm. Also, the zone of inhibition at 1000 µg/mL in test [2] was found to be 9 mm; in [5], 9 mm; in [7] it was 8 mm; in test [9], 10 mm; in test [14], 5 mm. In addition, the inhibition zone (IZ) amounted to 4 mm in test [3] and 6 mm in test [16]. Also, the figures for the Activity in test [10] and in test [11] were 0.215 and 0.265, respectively. Also, the IC50 amounted to 121 µM in [12] and 92 µM in test [13].

Regarding `COc1ccc(C2CC(=NOC(=O)c3cccc(O)c3)CC(c3ccc(OC)cc3)N2C)cc1` (stereo unspecified), the zone of inhibition at 500 µg/mL in [1] was determined as 1 mm; in [4], 3 mm; in test [6], 4 mm; in [8], 5 mm; in [15] it was 0 mm. Moreover, the zone of inhibition at 1000 µg/mL in [2] amounted to 3 mm; in [5] it was 5 mm; in test [7], 6 mm; in test [9] it was 6 mm; in [14], 1 mm. The inhibition zone (IZ) stood at 0 mm in test [3] and 1 mm in [16]. Besides, the Activity in [10] worked out at 0.265; in test [11], 0.321. Besides, the IC50 in test [12] was found to be 34 µM; in test [13], 21 µM.

With `OC(Cn1cncn1)(Cn1cncn1)c1ccc(F)cc1F` [FLUCONAZOLE], the zone of inhibition at 500 µg/mL in test [1] was found to be 20 mm; in test [15] it was 11 mm. Moreover, the zone of inhibition at 1000 µg/mL in test [2] came to 22 mm; in [14] it was 13 mm. Further, the inhibition zone (IZ) is 15 mm in test [3] and 17 mm in [16].

With `COc1ccc(C(=O)ON=C2CC(c3ccc(OC)cc3)N(C)C(c3ccc(OC)cc3)C2)cc1` (stereo unspecified), the zone of inhibition at 500 µg/mL in test [1] amounted to 5 mm; in test [4], 3 mm; in [6], 1 mm; in test [8], 1 mm; in [15], 4 mm. Further, the zone of inhibition at 1000 µg/mL in [2] stood at 7 mm; in test [5], 4 mm; in test [7], 3 mm; in test [9], 2 mm; in test [14] it was 5 mm. Besides, the inhibition zone (IZ) in [3] and in test [16] was 3 mm in each case. In addition, the Activity in test [10] is 0.245; in test [11] it was 0.31. Besides, the IC50 in [12] amounted to 68 µM; in test [13], 32 µM.

For `COc1ccc(C2CC(=NOC(=O)c3cc(O)cc(O)c3)CC(c3ccc(OC)cc3)N2C)cc1` (stereo unspecified), the zone of inhibition at 500 µg/mL was 3 mm in [1]; 4 mm in [4]; 4 mm in [6]; 4 mm in test [8]; 0 mm in [15]. For the same compound, the zone of inhibition at 1000 µg/mL in test [2] amounted to 3 mm; in test [5] it was 5 mm; in test [7], 4 mm; in [9], 3 mm; in test [14] it was 1 mm. For the same compound, the figures for the inhibition zone (IZ) in test [3] and in [16] were 1 mm and 0 mm, respectively. In addition, the Activity in test [10] was determined as 0.363; in [11], 0.352. Also, the figures for the 50% inhibitory concentration (IC50) in test [12] and in [13] were 19 µM and 12 µM, respectively.

For the compound `COc1ccc(C2CC(=NOC(=O)c3ccc(O)cc3)CC(c3ccc(OC)cc3)N2C)cc1` (stereo unspecified), the zone of inhibition at 500 µg/mL was found to be 2 mm in test [1]; 2 mm in test [4]; 3 mm in [6]; 3 mm in [8]; 1 mm in [15]. Moreover, the zone of inhibition at 1000 µg/mL was found to be 2 mm in test [2]; 3 mm in [5]; 5 mm in test [7]; 4 mm in test [9]; 0 mm in test [14]. Further, the figures for the inhibition zone (IZ) in [3] and in [16] were 1 mm and 2 mm, respectively. Moreover, the Activity in [10] was found to be 0.293; in test [11] it was 0.333. For the same compound, the IC50 in [12] is 25 µM; in test [13] it was 15 µM.

As to `COc1ccc(C2CC(=NOC(=O)c3ccc([N+](=O)[O-])cc3)CC(c3ccc(OC)cc3)N2C)cc1` (stereo unspecified), the zone of inhibition at 500 µg/mL was 7 mm in [1]; 5 mm in test [4]; 3 mm in test [6]; 3 mm in test [8]; 2 mm in [15]. Besides, the zone of inhibition at 1000 µg/mL in [2] was determined as 6 mm; in test [5], 8 mm; in test [7], 7 mm; in [9] it was 7 mm; in test [14], 3 mm. Further, the inhibition zone (IZ) in [3] was 3 mm; in test [16], 4 mm. In addition, the Activity in test [10] amounted to 0.157; in test [11], 0.216. In addition, the IC50 in test [12] was 280 µM; in test [13] it was 120 µM.
